{"source": "patent US8937044B2", "about": "“Process for the synchronization of ovulation for timed breeding without heat detection” (priority 2003, dated 2015)", "type_in_all_cases": "in vivo, swine", "key": {"postpartum sows [1]": {"test_system": "postpartum sows", "test": "Pregnancy rate after deslorelin treatment in sows, summary of Tables 2-5", "details": "Table 6 summary", "experimental": "Approximately 170 postpartum sows were randomly divided into two equal groups comprised of controls and treated. Following weaning, the controls were detected for estrus and bred following the normal standard operating procedures for the farms on which they resided. The treated sows received a 50 mcg dose of deslorelin in SAIB at 96 hours post-weaning and were bred with a single insemination 28+/−2 hours later with no regard to estrus detection. The sows were examined for pregnancy by ultrasound at 21 days and slaughtered around 28 days post breeding. The entire reproductive tract was removed and corpora lutea and embryos were counted. Postpartum sows were randomly distributed into three different groups comprised of Controls, Treatment 1, and Treatment 2, with the exception of Site 3, which was divided into two groups, Control and Treatment 2. Control sows were detected for estrus following weaning, and bred following the normal standard operating procedures for the farms on which they resided. Treatment 1 sows were detected for estrus following weaning, and received a 50 mcg dose of deslorelin in the morning when standing and were bred by AI 4 hours later and again at 24+/−2 hours later. Treatment 2 sows received a 50 mcg dose of deslorelin in SAIB at 96 or 120 hours post-weaning and were bred with a single insemination 28+/−2 hours later with, no regard to estrus detection."}, "postpartum sows [2]": {"test_system": "postpartum sows", "test": "Timed deslorelin injection 96 h post-weaning and single timed insemination without estrus detection (Example 3)", "experimental": "Approximately 170 postpartum sows were randomly divided into two equal groups comprised of controls and treated. Following weaning, the controls were detected for estrus and bred following the normal standard operating procedures for the farms on which they resided. The treated sows received a 50 mcg dose of deslorelin in SAIB at 96 hours post-weaning and were bred with a single insemination 28+/−2 hours later with no regard to estrus detection. The sows were examined for pregnancy by ultrasound at 21 days and slaughtered around 28 days post breeding. The entire reproductive tract was removed and corpora lutea and embryos were counted."}, "postpartum sows [3]": {"test_system": "postpartum sows", "test": "Litter size after deslorelin treatment in sows, three farm sites (Example 4)", "details": "Tables 3-5, three sites, regardless of estrus detection", "description": "Postpartum sows were randomly distributed into three different groups comprised of Controls, Treatment 1, and Treatment 2, with the exception of Site 3, which was divided into two groups, Control and Treatment 2. Control sows were detected for estrus following weaning, and bred following the normal standard operating procedures for the farms on which they resided. Treatment 1 sows were detected for estrus following weaning, and received a 50 mcg dose of deslorelin in the morning when standing and were bred by AI 4 hours later and again at 24+/−2 hours later. Treatment 2 sows received a 50 mcg dose of deslorelin in SAIB at 96 or 120 hours post-weaning and were bred with a single insemination 28+/−2 hours later with, no regard to estrus detection."}, "LH": {"test_system": "LH", "test": "LH response (RIA) in ovariectomized estrogen primed gilt model, dose response study", "details": "single injection of 50 mcg in SAIB", "experimental": "A dose response study was performed using deslorelin in SAIB in an ovariectomized estrogen primed gilt model (Barb, et al. (1999) Proceed. Int'l. Symp. Control. Rel. Bioact. Mater., 26)."}, "mature postpartum sows": {"test_system": "mature postpartum sows", "test": "Deslorelin at first detected estrus in postpartum sows, AI breeding (Example 2)", "experimental": "Sows were assigned randomly in blocks of two to either control or to be injected intravulvar with 50 mcg of deslorelin in SAIB at the time of estrus detection for sows first detected in estrus in the a.m. and 12 hours later for those first detected in estrus in the p.m. Treated animals were bred AI upon detected estrus and again 24 hours later if still in estrus. Controls received a saline injection on first detected estrus behavior estrus detection and were bred according to the farm's normal procedures."}}, "data": [{"smiles": "CCNC(=O)[C@@H]1CCCN1C(=O)[C@H](CCCN=C(N)N)NC(=O)[C@H](CC(C)C)NC(=O)[C@@H](Cc1c[nH]c2ccccc12)NC(=O)[C@H](Cc1ccc(O)cc1)NC(=O)[C@H](CO)NC(=O)[C@H](Cc1c[nH]c2ccccc12)NC(=O)[C@H](Cc1cnc[nH]1)NC(=O)[C@@H]1CCC(=O)N1", "note": "[Deslorelin, deslorelin]", "values": [{"measurement": "pregnancy rates (in words)", "setting": "postpartum sows [1]", "value": "normal pregnancy rates were obtained"}, {"measurement": "Embryo Survival", "setting": "postpartum sows [2]; 50 mcg in SAIB 96 h post-weaning, single insemination 28+/-2 h later", "value": 64, "unit": "%"}, {"measurement": "Sows Pregnant", "setting": "postpartum sows [2]; 50 mcg in SAIB 96 h post-weaning, single insemination 28+/-2 h later, 84 sows in group", "value": 60}, {"measurement": "Pregnancy Rate", "setting": "postpartum sows [2]; 50 mcg in SAIB 96 h post-weaning, single insemination 28+/-2 h later, no estrus detection", "value": 71, "unit": "%"}, {"measurement": "pregnancy rates (in words)", "setting": "postpartum sows [2]; single timed injection in SAIB post-weaning, single timed insemination, no estrus detection", "value": "normal pregnancy rates were attained"}, {"measurement": "litter sizes (in words)", "setting": "postpartum sows [3]", "value": "normal litter sizes"}, {"measurement": "time at which LH returned to base level", "setting": "LH", "value": "≤ 18", "unit": "h"}, {"measurement": "LH peak relative to normal value", "setting": "LH; normal value from Hansel et al. 1973", "value": "about twice normal value"}, {"measurement": "Pregnancy Rate", "setting": "mature postpartum sows; 50 μg deslorelin acetate (1 ml) intravulvar at first estrus detection, AI, again next day if in estrus, n = 75", "value": 91, "unit": "%"}, {"measurement": "pregnancy rates, Control versus Treated (in words)", "setting": "mature postpartum sows; 50 mcg in SAIB intravulvar at estrus detection", "value": "no significant difference"}]}]}
